Measured values as given in patent US7425577B2, “Lipase-colipase inhibitor” (Forskarpatent 1 SYD AB, priority 2003, dated 2008).
“Also recorded” adds a separate entry of the source.

Key:
[1] = target: T1, Lipase and colipase, purified from human pancreatic gland (Homo sapiens, UniProt P04118+P16233); assay: Determination of lipolysis by colipase/lipase (pH-stat, tributyrine emulsion with NaTDC); assay type: biochemical
T1 construct: Lipase, Purified from Human Pancreatic Gland; Colipase, Purified from Human Pancreatic Gland; from tissue; host or cells: human pancreatic gland
T1 sequence (P16233 17-465): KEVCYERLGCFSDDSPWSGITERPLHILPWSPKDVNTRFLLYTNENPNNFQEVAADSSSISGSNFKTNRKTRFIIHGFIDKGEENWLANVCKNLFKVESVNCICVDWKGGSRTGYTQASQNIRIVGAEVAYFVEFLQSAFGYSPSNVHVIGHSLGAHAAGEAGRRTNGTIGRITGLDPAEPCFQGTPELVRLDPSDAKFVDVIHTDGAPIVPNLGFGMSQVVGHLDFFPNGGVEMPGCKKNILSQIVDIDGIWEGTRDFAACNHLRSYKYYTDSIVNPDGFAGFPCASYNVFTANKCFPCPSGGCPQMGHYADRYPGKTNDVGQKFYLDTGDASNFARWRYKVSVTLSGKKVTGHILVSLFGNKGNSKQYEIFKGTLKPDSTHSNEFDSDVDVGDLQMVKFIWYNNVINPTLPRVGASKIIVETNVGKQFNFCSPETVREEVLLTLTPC
T1 sequence (P04118 23-112): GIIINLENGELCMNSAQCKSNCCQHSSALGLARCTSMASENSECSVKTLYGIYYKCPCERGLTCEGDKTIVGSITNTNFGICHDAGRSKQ
Text: Determination of Lipolysis by Colipase/Lipase
The most important enzyme in the gastro-intestinal tract being responsible for the hydrolysis of lipids/fats in the gastro-intestinal tract is lipase, pancreatic lipase, together with its protein cofactor colipase. These are two proteins, which are secreted from the pancreatic gland. […] The colipase binds to lipase in a molar 1:1 complex and then moves the complex to the triglyceride surface. In the binding between lipase and colipase hydrogen bonds are present, between arg38 of the colipase and ser343 of the lipase and from glu15 of the colipase and the asn241 of the lipase molecules. In the binding of colipase to the substrate (the lipids/fat) there are both hydrophobic bonds as well as ion-ion bonds present. By an isolated lack of colipase it has been shown that colipase has a decisive role for the lipolysis in the gastro-intestinal tract of humans. Pure lipase and colipase have been produced in accordance with the following.
Lipase, Purified from Human Pancreatic Gland
Colipase, Purified from Human Pancreatic Gland
0.5 ml of tributyrine is mixed with 15 ml of a buffer containing 1 mM CaCl2, 150 mM NaCl, 2 mM tris-maleate, pH 7.0 and 4 mM NaTDC (sodium taurodeoxycholate). An emulsion is obtained by continuous stirring. pH is titrated by means of a pH-state, where 0.1 N NaOH is added automatically to keep an constant pH. 10 μl of lipase is added from a stock solution containing 70 units of lipase/ml, followed by 10 μl of colipase from a stock solution containing 1 mg colipase/ml. An activity is registered which is determined to be 100%. An addition of an inhibitor is then made. A new assay is used for every concentration, prepared in the same way. The inhibition is registered as percentage of control. A dose-response plot is obtained for the compounds having an inhibiting ability.

[2] = target: T2, lipase (Homo sapiens, UniProt P04118+P16233); assay: Inhibition of lipase activity in vitro assay, tributyrin or Intralipid as substrates (FIGS. 1A and 1B); assay type: biochemical; settings: for Inhibition of lipase activity in vitro: tributyrin or intralipid as substrates
T2 sequence (P16233 17-465): T1 sequence (P16233 17-465)
T2 sequence (P04118 23-112): T1 sequence (P04118 23-112)

[3] = Blood lipids analysis after 5 days of oral administration; assay type: in vivo, female Sprague-Dawley rats; settings: 50 μl orally for 5 days
Method: Female female Sprague-Dawley rats were used for all experiments. Rats were housed in a temperature-controlled room (22±1° C.) under a 12-h light (6:00-18:00)/12-h cycle, given free access to water, and fed an libitum on a standard chow unless otherwise stated for a high-fat diet experiment. All procedures using animals were approved by the local ethics committee and followed the guidelines for experiments in animals (European Economic Community Council Directive 86/609/EEC).
Blood was drawn in rats from the intra-orbital bullar plexus under anaesthesia and collected in ice-cold tubes. Serum was obtained by centrifugation at 3000 g for 15 min at 4° C. […] Plasma triglycerides was determined with an Sigma diagnostics kit. Plasma fatty acids were measured by NEFAC kit (Wako chemicals GmbH, Neuss, Germany). Plasma PYY (3-36) and leptin were measured with the PYY Enzyme Immunossay kit and leptin Enzyme Immunossay (Phoenix Pharmaceuticals, USA)

[4] = tested on: Pancreatic lipase; assay: Pancreatic lipase activity and protein expression in pancreas after 5 days of treatment; assay type: in vivo, rat; settings: pancreas of rats given 50 μl for 5 days by gastric gavage
Method: At the end of experiment, rats were killed and the pancreas collected for assay of lipase activity and protein expression. Lipase activity was determined with pH stat titration (Mettle Components DK 10, DK 11, DV11) using tributyrin dispersed in bile salt as substrate (Borgström & Erlanson). Lipase expression was analysed by western blot.
Pancreas was homogenized in 0.5% digitonin buffer containing 10 mM sodium phosphate (pH6.0) and 1 mini complete tablet on ice. After centrifuge at 14000 g, 4° C. for 10 min, the supernatant was collected and heating at 65° C., 15 min for inactivate endogenous lipase. The protein amount was measured by BCA method. Equal amount (50 μg) protein was load on 10% SDS-polyacrylamide gels, transferred to the nitrocellulose membranes and then incubated with anti-lipase antibody in the dilution 1:1000 at 4° C. overnight. Pancreatic lipase protein was detected using a horseradish peroxidase-conjugated donkey anti-rabbit antibody (1:8000) for 60 min at room temperature followed with an enhanced chemiluminescence (Pierce).

CCCCCCCCCCCCOCCN(C)C [dimethylaminoethyl dodecyl ether]
Activity Inhibitor ([1]; amount of inhibitor 0.97 μmol, control activity 0.313): 0.237 µmol/min
Activity Inhibitor ([1]; amount of inhibitor 1.95 μmol, control activity 0.301): 0.204 µmol/min
Activity Inhibitor ([1]; amount of inhibitor 3.89 μmol, control activity 0.308): 0.127 µmol/min
Activity Inhibitor ([1]; amount of inhibitor 6.81 μmol, control activity 0.319): 0.069 µmol/min
Activity Inhibitor ([1]; amount of inhibitor 9.73 μmol, control activity 0.327): 0.033 µmol/min
Activity Inhibitor ([1]; amount of inhibitor 14.59 μmol, control activity 0.328): 0.013 µmol/min
Activity Inhibitor ([1]; amount of inhibitor 19.46 μmol, control activity 0.332): 0 µmol/min
Dose at which the maximum inhibition of lipase activity was seen ([2]; Intralipid as substrate): 80 µmol
Dose at which the maximum inhibition of lipase activity was seen ([2]; tributyrin as substrate): 40 µmol
Inhibition of lipase activity in vitro [2]: completely inhibited lipase activity
Inhibition of lipase activity in vitro ([2]; listed as Dimethylaminoethyl dodecyl ether): inhibited lipase activity in a dose-depended manner
Serum (plasma) cholesterol level vs vehicle [3]: no effect; also recorded: no difference
Serum fatty acids level vs vehicle [3]: decreased serum triglyceride and fatty acids, but this was not statistic significance; also recorded: decreased
Serum triglyceride level vs vehicle [3]: decreased serum triglyceride and fatty acids, but this was not statistic significance; also recorded: decreased
Pancreatic lipase activity vs controls [4]: not changed
Pancreatic lipase protein expression vs controls (western blot) [4]: slightly reduced; also recorded: reduced
